By IC50 is commonly meant the concentration that inhibits the measured activity by half.

Here are results for 23 compounds from patent US10138225B2 (Achillion Pharmaceuticals, Inc., priority 2015, dated 2018).

The target of the assay is T1, Human Factor D (Homo sapiens, UniProt P00746).
T1 construct: purified from human serum; purchased Complement Technology, Inc; host or cells: human serum (natural protein, not recombinant)
The assay can be described thus: Human Factor D Assay. It is filed as biochemical. As to the method: Human Factor D (purified from human serum, Complement Technology, Inc.) at 80 nM final concentration is incubated with test compound at various concentrations for 5 minutes at room temperature in 50 mM Tris, 1M NaCl, pH 7.5. A synthetic substrate Z-L-Lys-SBzl and DTNB (Ellman's reagent) are added to final concentrations of 100 μM each. Absorbance at 405 nm (A405) is recorded at 30 second intervals for 30 minutes using a microplate spectrophotometer. IC50 values are calculated by nonlinear regression of complement Factor D reaction rates as a function of test compound concentration.

Where [1] appears, read: Table 1, Factor D 80 nM, substrate Z-L-Lys-SBzl, read-out: IC50.
Where [2] appears, read: Table 3, factor D inhibition assay, read-out: IC50 (Stars).
Setting [3] is: Table 2, Factor D 80 nM, substrate Z-L-Lys-SBzl, read-out: IC50.

Where two headings read alike, the source gives them in different places. Where only a bound is given, the exact number is not on record here.

T1 sequence (P00746 26-253): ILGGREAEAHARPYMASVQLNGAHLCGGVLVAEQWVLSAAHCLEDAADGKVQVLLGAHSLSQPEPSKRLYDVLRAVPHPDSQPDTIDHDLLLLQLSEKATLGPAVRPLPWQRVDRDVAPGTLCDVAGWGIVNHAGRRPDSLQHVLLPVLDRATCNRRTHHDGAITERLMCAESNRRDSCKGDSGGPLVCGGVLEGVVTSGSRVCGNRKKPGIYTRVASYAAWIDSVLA

Turning to `NC(=O)c1nn(CC(=O)N2C[C@H](F)C[C@H]2C(=O)Nc2cccc(-c3ccccc3Cl)c2F)c2ccc(NC(=O)N3CCCC(F)(F)C3)cc12` [Compound 24, 1-(2-((2S,4R)-2-(2′-chloro-2-fluorobiphenyl-3-ylcarbamoyl)-4-fluoropyrrolidin-1-yl)-2-oxoethyl)-5-(3,3-difluoropiperidine-1-carboxamido)-1H-indazole-3-carboxamide], under setting [1], the IC50 was less than 1000 nM.

In the case of `CC(=O)c1cn(CC(=O)N2C[C@H](F)C[C@H]2C(=O)NCc2cccc(Cl)c2F)c2ccc(NC(=O)Nc3cncnc3)cc12` [Compound 23, (2S,4R)-1-(2-(3-acetyl-5-(3-pyrimidin-5-ylureido)-1H-indol-1-yl)acetyl)-N-(3-chloro-2-fluorobenzyl)-4-fluoropyrrolidine-2-carboxamide], the IC50 under setting [1] was less than 1000 nM. Turning to `CC(=O)c1nn(CC(=O)N2C[C@H](F)C[C@H]2C(=O)Nc2cccc(Br)n2)c2ccc(NC(=O)N3CCC(F)(F)C3)cc12` [Compound 207, N-(3-acetyl-1-(2-((2S,4R)-2-((6-bromo-pyridin-2-yl)carbamoyl)-4-fluoro-pyrrolidin-1-yl)-2-oxoethyl)-1H-indazol-5-yl)-3,3-difluoro-pyrrolidine-1-carboxamide], the IC50 under setting [2] was less than 1000 nM. Take `NC(=O)c1nn(CC(=O)N2C[C@H](F)C[C@H]2C(=O)Nc2cccc(OC(F)(F)F)c2F)c2ccc(NC(=O)N3CCCC(F)(F)C3)cc12` [Compound 26]: the IC50 under setting [1] is less than 1000 nM. `CC(=O)c1nn(CC(=O)N2[C@H](C(=O)Nc3cccc(Br)n3)C[C@@]3(C)C[C@@H]23)c2cc(C(=O)NS(=O)(=O)C3CC3)ccc12` [Compound 234, 3-acetyl-1-(2-((1R,3S,5R)-3-((6-bromopyridin-2-yl)carbamoyl)-5-methyl-2-azabicyclo [3.1.0]hexan-2-yl)-2-oxoethyl)-N-(cyclopropylsulfonyl)-1H-indazole-6-carboxamide]: the IC50 under setting [2] was 1000 to 10000 nM. In the case of `CC(=O)c1cn(CC(=O)N2C[C@H](F)C[C@H]2C(=O)Nc2cccc(-c3ccccc3Cl)c2F)c2ccc(NC(=O)CC(F)(F)F)cc12` [Compound 36, (2S,4R)-1-(2-(3-acetyl-5-(3,3,3-trifluoropropanamido)-1H-indol-1-yl)acetyl)-N-(2′-chloro-2-fluorobiphenyl-3-yl)-4-fluoropyrrolidine-2-carboxamide], the IC50 under setting [1] was less than 1000 nM. `CC(=O)c1cn(CC(=O)N2[C@@H]3C[C@@H]3C[C@H]2C(=O)NCc2cccc(Cl)c2F)c2ccc(NC(=O)NC3CC3)cc12` [Compound 3, (1R,3S,5R)-2-(2-(3-acetyl-5-(3-cyclopropylureido)-1H-indol-1-yl)acetyl)-N-(3-chloro-2-fluorobenzyl)-2-azabicyclo[3.1.0] hexane-3-carboxamide]: the IC50 under setting [1] is less than 1000 nM. Turning to `CC(=O)c1cn(CC(=O)N2C[C@H](F)C[C@H]2C(=O)NCc2cccc(Cl)c2F)c2ccc(NC(=O)N3CCC(F)(F)C3)cc12` [Compound 13, N-(3-acetyl-1-(2-((2S,4R)-2-(3-chloro-2-fluorobenzylcarbamoyl)-4-fluoropyrrolidin-1-yl)-2-oxoethyl)-1H-indol-5-yl)-3,3-difluoropyrrolidine-1-carboxamide], the IC50 under setting [1] is less than 1000 nM. Same read-out and setting: as for `CC(=O)c1cn(CC(=O)N2C[C@H](F)C[C@H]2C(=O)NCc2cccc(Cl)c2F)c2cc(C(=O)NCC3CCN(C(=O)OC(C)(C)C)C3)ccc12` (stereo partly drawn) [Compound 50, tert-butyl 3-((3-acetyl-1-(2-((2S,4R)-2-(3-chloro-2-fluorobenzylcarbamoyl)-4-fluoropyrrolidin-1-yl)-2-oxoethyl)-1H-indole-6-carboxamido)methyl) pyrrolidine-1-carboxylate], the figure is less than 1000 nM; as for `CC(=O)c1cn(CC(=O)N2C[C@H](F)C[C@H]2C(=O)NCc2cccc(Cl)c2F)c2cc(NC(=O)OC(C)(C)C)ccc12` [Compound 37, tert-butyl 3-acetyl-1-(2-((2S,4R)-2-(3-chloro-2-fluorobenzylcarbamoyl)-4-fluoropyrrolidin-1-yl)-2-oxoethyl)-1H-indol-6-ylcarbamate], less than 1000 nM.

As to `NC(=O)c1nn(CC(=O)N2[C@@H]3C[C@@H]3C[C@H]2C(=O)Nc2cccc(-c3ccccc3Cl)c2F)c2ccc(NC(=O)N3CCCC(F)(F)C3)cc12` [Compound 28, 1-(2-((1R,3S,5R)-3-(2′-chloro-2-fluorobiphenyl-3-ylcarbamoyl)-2-azabicyclo[3.1.0]hexan-2-yl)-2-oxoethyl)-5-(3,3-difluoropiperidine-1-carboxamido)-1H-indazole-3-carboxamide], the IC50 under setting [1] was less than 1000 nM. Still for that read-out and setting: as for `COC(=O)C1CCN(C(=O)c2ccc3c(C(C)=O)cn(CC(=O)N4C[C@H](F)C[C@H]4C(=O)NCc4cccc(Cl)c4F)c3c2)C1` (stereo partly drawn) [Compound 51, methyl 1-(3-acetyl-1-(2-((2S,4R)-2-(3-chloro-2-fluorobenzylcarbamoyl)-4-fluoropyrrolidin-1-yl)-2-oxoethyl)-1H-indole-6-carbonyl)pyrrolidine-3-carboxylate], the figure is less than 1000 nM; as for `CC(=O)c1cn(CC(=O)N2[C@@H]3C[C@@H]3C[C@H]2C(=O)NCc2cccc(Cl)c2F)c2ccc(NC(=O)N3CCCC3)cc12` [Compound 12, (1R,3S,5R)-2-(2-(3-acetyl-5-(pyrrolidine-1-carboxamido)-1H-indol-1-yl)acetyl)-N-(3-chloro-2-fluorobenzyl)-2-azabicyclo[3.1.0] hexane-3-carboxamide], less than 1000 nM. `CC(=O)c1cn(CC(=O)N2C[C@H](F)C[C@H]2CCNS(=O)(=O)c2ccccc2)c2ccc(NC(=O)N3CCCC(F)(F)C3)cc12` [Compound 201, N-(3-acetyl-1-(2-((2R,4R)-4-fluoro-2-(2-(phenylsulfonamido)ethyl)pyrrolidin-1-yl)-2-oxoethyl)-1H-indol-5-yl)-3,3-difluoro-piperidine-1-carboxamide]: under setting [2], the IC50 lay in the range of 1000 to 10000 nM. `CC(=O)c1cn(CC(=O)N2C[C@H](F)C[C@H]2C(=O)NCc2cccc(Cl)c2F)c2ccc(NC(=O)N3CCCC(F)(F)C3)cc12` [Compound 16, N-(3-acetyl-1-(2-((2S,4R)-2-(3-chloro-2-fluorobenzylcarbamoyl)-4-fluoropyrrolidin-1-yl)-2-oxoethyl)-1H-indol-5-yl)-3,3-difluoropiperidine-1-carboxamide]: the IC50 under setting [1] is less than 1000 nM. Turning to `Cc1cccc(NC(=O)[C@@H]2[C@H]3CC[C@H](C3)N2C(=O)Cn2cc(C(N)=O)c3cc(C(=O)N4CCCC(F)(F)C4)ccc32)n1` [Compound 206, 5-(3,3-difluoropiperidine-1-carbonyl)-1-(2-((1R,3S,4S)-3-((6-methyl-pyridin-2-yl)-carbamoyl)-2-aza-bicyclo[2.2.1]heptan-2-yl)-2-oxoethyl)-1H-indole-3-carboxamide], the IC50 under setting [2] was 1000 to 10000 nM. As for `CN(C)C(=O)c1cc2c(s1)c(C(N)=O)nn2CC(=O)N1C[C@H](F)C[C@H]1C(=O)Nc1cccc(-c2ccccc2Cl)c1F` [Compound 62, 1-(2-((2S,4R)-2-(2′-chloro-2-fluorobiphenyl-3-ylcarbamoyl)-4-fluoropyrrolidin-1-yl)-2-oxoethyl)-N5,N5-dimethyl-1H-thieno[3,2-c]pyrazole-3,5-dicarboxamide], the IC50 under setting [3] was less than 1000 nM. Regarding `CC(=O)c1cn(CC(=O)N2C[C@H](F)C[C@H]2C(=O)NCc2cccc(Cl)c2F)c2ccc(C(=O)NC3CC3)cc12` [Compound 41, 3-acetyl-1-(2-((2S,4R)-2-(3-chloro-2-fluorobenzylcarbamoyl)-4-fluoropyrrolidin-1-yl)-2-oxoethyl)-N-cyclopropyl-1H-indole-5-carboxamide], the IC50 under setting [1] was less than 1000 nM.

Regarding `CC(=O)c1cn(CC(=O)N2C[C@H](F)C[C@H]2C(=O)NCc2cccc(Cl)c2F)c2ccc(C(=O)N3CCCC(F)(F)C3)cc12` [Compound 40, (2S,4R)-1-(2-(3-acetyl-5-(3,3-difluoropiperidine-1-carbonyl)-1H-indol-1-yl)acetyl)-N-(3-chloro-2-fluorobenzyl)-4-fluoropyrrolidine-2-carboxamide], under setting [1], the IC50 was less than 1000 nM.

With `CC(=O)c1cn(CC(=O)N2C[C@H](F)C[C@H]2C(=O)NCc2cccc(Cl)c2F)c2cc(C(=O)NS(=O)(=O)C3CC3)ccc12` [Compound 48, 3-acetyl-1-(2-((2S,4R)-2-(3-chloro-2-fluorobenzylcarbamoyl)-4-fluoropyrrolidin-1-yl)-2-oxoethyl)-N-(cyclopropylsulfonyl)-1H-indole-6-carboxamide], under setting [1], the IC50 is less than 1000 nM. Regarding `NC(=O)c1nn(CC(=O)N2C[C@H](F)C[C@H]2C(=O)Nc2cccc(-c3ccccc3Cl)c2F)c2cc(C(=O)NC3CC3)sc12` [Compound 57, 1-(2-((2S,4R)-2-(2′-chloro-2-fluorobiphenyl-3-ylcarbamoyl)-4-fluoropyrrolidin-1-yl)-2-oxoethyl)-N5-cyclopropyl-1H-thieno[3,2-c]pyrazole-3,5-dicarboxamide], the IC50 under setting [3] is less than 1000 nM. Consider `CC(=O)c1cn(CC(=O)N2C[C@H](F)C[C@H]2C(=O)NCc2cccc(Cl)c2F)c2ccc(NC(=O)OCC3CC3)cc12` [Compound 15, cyclopropylmethyl 3-acetyl-1-(2-((2S,4R)-2-(3-chloro-2-fluorobenzylcarbamoyl)-4-fluoropyrrolidin-1-yl)-2-oxoethyl)-1H-indol-5-ylcarbamate], for which the IC50 under setting [1] was less than 1000 nM. With `CC(=O)c1cn(CC(=O)N2[C@@H]3C[C@@H]3C[C@H]2C(=O)Nc2cccc(OC(F)(F)F)c2F)c2ccc(NC(=O)NC3CC3)cc12` [Compound 11, (1R,3S,5R)-2-(2-(3-acetyl-5-(3-cyclopropylureido)-1H-indol-1-yl)acetyl)-N-(2-fluoro-3-(trifluoromethoxy)phenyl)-2-azabicyclo[3.1.0] hexane-3-carboxamide], under setting [1], the IC50 is less than 1000 nM.
